Experimental data as given in US8383647B2, “Quinoline derivative” (Takeda Pharmaceutical Company Limited, priority 2009, dated 2013).

Key:
[1] = target: T1, HERG (Homo sapiens, UniProt Q12809); test: Evaluation of HERG inhibitory activity (whole-cell patch clamp, HERG.T.HEK cells); format: cell-based; settings: peak tail current
T1 construct: host or cells: HERG.T.HEK (HEK cells, Geneticin-selected)
Excerpt: MEM medium, MEM nonessential amino acid solution, sodium pyruvate solution and G418 sulfate solution (Geneticin) were purchased from Invitrogen Corporation (Carlsbad, Calif.). Bovine serum albumin (BSA, Fatty Acid Free) was a product of Wako Pure Chemical Industries, Ltd. (Osaka, Japan). Fetal bovine serum (FCS) was a product of Trau Scientific Ltd. (Melbourne, Australia).
As HERG expression cell HERG.T.HEK, the cell obtained from Wisconsin ALUMNI Research Foundation was used. HERG.T.HEK was maintained and passaged at 37° C. in the presence of 5% CO2 using an MEM medium containing 10% FCS, 1 mM MEM nonessential amino acid, 1 mM sodium pyruvate and 500 μg/ml Geneticin.
80-90% confluent cells were collected by a trypsin treatment and plated on an IVF dish (Falcon, Franklin Lakes, N.J.). After 2-3 hr, cells were adhered to a glass electrode (resistance value 2-3 MΩ) filled with an electrode internal fluid (7 mM NaCl, 130 mM KCl, 1 mM MgCl2, 5 mM HEPES, 5 mM EGTA, 5 mM ATP-Na: pH 7.2) while perfusing with an extracellular fluid (137 mM NaCl, 4 mM KCl, 1 mM MgCl2, 1.8 mM CaCl2, 10 mM HEPES, 11 mM dextrose: pH 7.4), using a patch clamp amplifier AXOPATCH 200B (Axon instruments, Foster City, Calif.), whereby formation of whole-cell configuration and stimulation by voltage clamp protocol were performed (holding potential −75 mV, primary voltage 10 mV: 0.5 sec, secondary voltage −40 mV: 0.5 sec, stimulation frequency 5 sec (Example 31 and Example 50) or 10 sec (Comparative Example 1 and Comparative Example 2). A preliminary stimulation was applied and the HERG electric current value (peak tail current) was measured when the electric current waveform was stabilized.
For measurement of the HERG electric current with addition of the test compound, the cells were first perfused with the extracellular fluid and, when the waveform was stabilized, the cells were perfused with an extracellular fluid containing 10 μm of a test compound. When the electric current waveform was stabilized under respective perfuse conditions, the HERG electric current was measured.
The HERG electric current inhibitory rate (%) of the test compound was calculated with the HERG electric current value without addition of the test compound as 100%.

[2] = test system: HepG2 cells; test: Evaluation of PLsis (NBD-PE uptake); format: cell-based; settings: 24 hr exposure, relative to 10 μM Amiodarone, maximum value per unit concentration
Protocol: DMEM medium, L-glutamine, penicillin-streptomycin, pyruvic acid, and N-(7-nitrobenz-2-oxa-1,3-diazol-4-yl)-1,2-hexadecanoyl-sn-glycero-3-phosphoethanolamine triethylammonium salt (NBD-PE) were purchased from Invitrogen Corporation. As bovine serum albumin (BSA), a product of Thermo Trace Ltd. (Melbourne, Australia) was used, and as Amiodarone, a product of ICN (Costa Mesa, Calif.) was used. A test compound was used in the form of a 10 mM DMSO solution.
FBS was added at a final concentration of 5 vol % to DMEM medium supplemented with L-glutamine, pyruvic acid and penicillin-streptomycin and subjected to the experiment. Culture was performed using 5% carbon dioxide gas-95% air as a gas phase in a CO2 incubator at 37° C. HepG2 cells were suspended in a culture medium at 50×10^4 cells/mL, plated in a 96 well plate at 50 μL/well and precultured for 24 hr. After preculture, the culture medium was removed, a culture medium containing 60 μm NBD-PE was added at 50 μL/well, and a culture medium containing 0, 6 μM or 20 μM test compounds were each added at 50 μL/well to HepG2 cells, and the cells were cultured for 24 hr. As a positive control, Amiodarone was used at a final concentration of 10 μM.
After exposure to the test compound for 24 hr, the fluorescence intensity (Ex. 485 nm, Em. 538 nm) of NBD-PE uptaken by the cells was measured by a fluorometer. The measurement value with addition of 0 μM test compound solution was subtracted as a blank, a relative value to the measurement value with addition of 10 μm Amiodarone was calculated, and the maximum value per unit concentration of the test compound was obtained as a phospholipidosis (PLsis) induction potential.

[3] = target: human SLC-1 (Homo sapiens, UniProt Q99705); test: MCH receptor antagonistic activity (inhibitory activity, Experimental Example 1); format: biochemical
[4] = target: rat SLC-1 (Rattus norvegicus, UniProt P97639); test: as above; format: biochemical
Sequence of rat SLC-1 (P97639 whole entry): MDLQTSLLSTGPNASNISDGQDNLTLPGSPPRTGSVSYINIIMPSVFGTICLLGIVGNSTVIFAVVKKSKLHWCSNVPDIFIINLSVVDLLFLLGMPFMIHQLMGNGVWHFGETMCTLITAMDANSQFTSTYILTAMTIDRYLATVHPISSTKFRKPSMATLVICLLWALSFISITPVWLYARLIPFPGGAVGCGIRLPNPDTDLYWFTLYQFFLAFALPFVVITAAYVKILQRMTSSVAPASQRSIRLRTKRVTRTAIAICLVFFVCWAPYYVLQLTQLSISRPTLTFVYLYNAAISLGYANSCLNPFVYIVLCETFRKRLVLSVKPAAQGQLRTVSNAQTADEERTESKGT

Sequence of human SLC-1 (Q99705 whole entry): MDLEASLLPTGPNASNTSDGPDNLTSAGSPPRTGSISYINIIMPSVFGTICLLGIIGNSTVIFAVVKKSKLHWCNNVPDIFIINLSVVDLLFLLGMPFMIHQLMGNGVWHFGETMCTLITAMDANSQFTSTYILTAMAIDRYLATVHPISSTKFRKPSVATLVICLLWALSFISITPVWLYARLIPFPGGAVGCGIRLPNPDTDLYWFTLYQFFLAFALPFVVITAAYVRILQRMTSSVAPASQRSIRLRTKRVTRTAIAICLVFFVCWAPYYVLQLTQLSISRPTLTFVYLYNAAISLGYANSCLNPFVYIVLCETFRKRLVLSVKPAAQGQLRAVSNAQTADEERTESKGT
T1 sequence (Q12809 whole entry): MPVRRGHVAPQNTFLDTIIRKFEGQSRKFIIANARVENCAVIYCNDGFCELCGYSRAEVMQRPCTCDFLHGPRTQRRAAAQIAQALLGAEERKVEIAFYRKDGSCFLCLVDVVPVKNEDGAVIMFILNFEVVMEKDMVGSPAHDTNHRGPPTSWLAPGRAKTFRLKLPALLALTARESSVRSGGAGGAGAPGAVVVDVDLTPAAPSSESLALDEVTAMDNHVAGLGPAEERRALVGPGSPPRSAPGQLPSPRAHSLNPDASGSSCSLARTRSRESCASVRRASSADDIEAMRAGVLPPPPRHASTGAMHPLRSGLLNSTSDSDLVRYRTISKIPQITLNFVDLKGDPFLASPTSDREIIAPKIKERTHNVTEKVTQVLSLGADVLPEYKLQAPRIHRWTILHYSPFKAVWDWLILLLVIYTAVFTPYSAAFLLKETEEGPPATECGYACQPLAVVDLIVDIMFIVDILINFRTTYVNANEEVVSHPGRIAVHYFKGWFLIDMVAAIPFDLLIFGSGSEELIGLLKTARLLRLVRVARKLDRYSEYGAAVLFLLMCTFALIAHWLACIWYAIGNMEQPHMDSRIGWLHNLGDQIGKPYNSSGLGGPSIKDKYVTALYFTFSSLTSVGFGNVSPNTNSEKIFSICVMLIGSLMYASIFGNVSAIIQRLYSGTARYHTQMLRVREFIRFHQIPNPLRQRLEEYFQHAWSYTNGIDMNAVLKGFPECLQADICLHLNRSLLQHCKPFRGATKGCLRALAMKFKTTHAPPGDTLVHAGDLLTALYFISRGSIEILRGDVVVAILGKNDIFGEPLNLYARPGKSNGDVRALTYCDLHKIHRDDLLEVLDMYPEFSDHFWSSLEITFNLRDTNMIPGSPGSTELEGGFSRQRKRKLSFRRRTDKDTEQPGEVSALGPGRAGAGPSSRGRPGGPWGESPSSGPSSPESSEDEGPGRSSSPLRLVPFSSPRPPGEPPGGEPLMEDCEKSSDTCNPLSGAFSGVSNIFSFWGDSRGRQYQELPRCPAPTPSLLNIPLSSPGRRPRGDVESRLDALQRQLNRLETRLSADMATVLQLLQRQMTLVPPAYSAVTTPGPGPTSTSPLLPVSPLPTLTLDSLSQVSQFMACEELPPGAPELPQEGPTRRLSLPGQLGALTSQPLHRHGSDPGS

In the case of `Cc1c(NC(=O)c2ccc(OCC3CC3)cc2)ccc2cc(CN[C@H]3CC[C@H](O)CC3)cnc12` [Com. Ex. 1, 4-(cyclopropylmethoxy)-N-[3-[[(trans-4-hydroxycyclohexyl)amino]methyl]-8-methylquinolin-7-yl]benzamide, reference compound], the “HERG electric current inhibitory rate (%) of 10 μM compound” value [1] is reported as 58% and the PLsis induction potential [2] is reported as 23.5.
For `Cc1c(NC(=O)c2ccc(OC[C@@H]3CCCO3)cc2)ccc2cc(CNC[C@H]3CCCO3)cnc12` [Example 27, N-[8-methyl-3-({[(2R)-tetrahydrofuran-2-ylmethyl]amino}methyl)quinolin-7-yl]-4-[(2S)-tetrahydrofuran-2-ylmethoxy]benzamide], the IC50 [3] was 6.3 nM, the IC50 [4] was 7.8 nM and the melting point was 92 to 94 °C.
Molecule `Cc1c(NC(=O)c2ccc(OC[C@@H]3CCCO3)cc2)ccc2cc(CNCC(C)(C)C)cnc12` [Example 39, N-(3-{[(2,2-dimethylpropyl)amino]methyl}-8-methylquinolin-7-yl)-4-[(2S)-tetrahydrofuran-2-ylmethoxy]benzamide] has an IC50 [3] of 1.8 nM, an IC50 [4] of 2 nM and a melting point of 114 to 116 °C.
In the case of `CC[C@H](C)NCc1cnc2c(C)c(NC(=O)c3ccc(OC[C@@H]4CCCO4)cc3)ccc2c1` [Example 56, N-[8-methyl-3-({[(1S)-1-methylpropyl]amino}methyl)quinolin-7-yl]-4-[(2S)-tetrahydrofuran-2-ylmethoxy]benzamide], the IC50 [3] is reported as 6.4 nM, the IC50 [4] is reported as 9.1 nM and the melting point is reported as 122 to 123 °C.
Work on `Cc1c(NC(=O)c2ccc(OC[C@@H]3CCCO3)cc2F)ccc2cc(CNCC(C)(C)O)cnc12` [Example 67, 2-fluoro-N-(3-{[(2-hydroxy-2-methylpropyl)amino]methyl}-8-methylquinolin-7-yl)-4-[(2S)-tetrahydrofuran-2-ylmethoxy]benzamide] yielded an IC50 [3] of 7.8 nM, an IC50 [4] of 11 nM and a melting point of 167 to 168 °C.
For `Cc1c(NC(=O)c2ccc(OC[C@@H]3CCCO3)cc2F)ccc2cc(CNCC(C)(C)C)cnc12` [Example 68, N-(3-{[(2,2-dimethylpropyl)amino]methyl}-8-methylquinolin-7-yl)-2-fluoro-4-[(2S)-tetrahydrofuran-2-ylmethoxy]benzamide], the IC50 [3] was 3.1 nM, the IC50 [4] was 2.8 nM and the melting point was 134 to 135 °C.
For `Cc1c(NC(=O)c2ccc(OCC3CC3)cc2)ccc2cc(CNC3CCC(C)(O)CC3)cnc12` (stereo not drawn) [Com. Ex. 2, 4-(cyclopropylmethoxy)-N-[3-[[(trans-4-hydroxy-4-methylcyclohexyl)amino]methyl]-8-methylquinolin-7-yl]benzamide, reference compound], the “HERG electric current inhibitory rate (%) of 10 μM compound” value [1] was 44.9% and the PLsis induction potential [2] was 27.8.
`CCC(CC)NCc1cnc2c(C)c(NC(=O)c3ccc(OC[C@@H]4CCCO4)cc3)ccc2c1` [Example 54, N-(3-{[(1-ethylpropyl)amino]methyl}-8-methylquinolin-7-yl)-4-[(2S)-tetrahydrofuran-2-ylmethoxy]benzamide] gave an IC50 [3] of 5.5 nM, an IC50 [4] of 6.1 nM and a melting point of 113 to 115 °C.
For `Cc1c(NC(=O)c2ccc(OC[C@@H]3CCCO3)cc2)ccc2cc(CNC3CCCC3)cnc12` [Example 36, N-{3-[(cyclopentylamino)methyl]-8-methylquinolin-7-yl}-4-[(2S)-tetrahydrofuran-2-ylmethoxy]benzamide], the IC50 [3] was 1.7 nM, the IC50 [4] was 3 nM and the melting point was 152 to 153 °C.
`Cc1c(NC(=O)c2ccc(OC[C@@H]3CCCO3)cc2)ccc2cc(CNCC3CCOCC3)cnc12` [Example 32, N-(8-methyl-3-{[(tetrahydro-2H-pyran-4-ylmethyl)amino]methyl}quinolin-7-yl)-4-[(2S)-tetrahydrofuran-2-ylmethoxy]benzamide] gave an IC50 [3] of 6 nM, an IC50 [4] of 6.4 nM and a melting point of 92 to 94 °C.
With `Cc1c(NC(=O)c2ccc(OC[C@@H]3CCCO3)cc2)ccc2cc(CNCCOC(C)C)cnc12` [Example 49, N-[8-methyl-3-({[2-(1-methylethoxy)ethyl]amino}methyl)quinolin-7-yl]-4-[(2S)-tetrahydrofuran-2-ylmethoxy]benzamide] the IC50 [3] was 4.8 nM, the IC50 [4] was 7.2 nM and the melting point was 111 to 113 °C.
`Cc1c(NC(=O)c2ccc(OC[C@@H]3CCCO3)cc2)ccc2cc(CNCC(C)C)cnc12` [Example 38, N-(8-methyl-3-{[(2-methylpropyl)amino]methyl}quinolin-7-yl)-4-[(2S)-tetrahydrofuran-2-ylmethoxy]benzamide] gave an IC50 [3] of 1.5 nM, an IC50 [4] of 1.7 nM and a melting point of 142 to 143 °C.
In the case of `Cc1c(NC(=O)c2ccc(OC[C@@H]3CCCO3)cc2)ccc2cc(CNCC3(C)COC3)cnc12` [Example 34, N-[8-methyl-3-({[(3-methyloxetan-3-yl)methyl]amino}methyl)quinolin-7-yl]-4-[(2S)-tetrahydrofuran-2-ylmethoxy]benzamide], the IC50 [3] is reported as 5.5 nM, the IC50 [4] is reported as 6.5 nM and the melting point is reported as 117 to 119 °C.
With `CCCNCc1cnc2c(C)c(NC(=O)c3ccc(OC[C@@H]4CCCO4)cc3)ccc2c1` [Example 45, N-{8-methyl-3-[(propylamino)methyl]quinolin-7-yl}-4-[(2S)-tetrahydrofuran-2-ylmethoxy]benzamide] the IC50 [3] was 3.1 nM, the IC50 [4] was 5.8 nM and the melting point was 121 to 122 °C.
With `Cc1c(NC(=O)c2ccc(OC[C@@H]3CCCO3)cc2)ccc2cc(CN[C@H]3CC[C@H](O)CC3)cnc12` [Example 48, N-(3-{[(trans-4-hydroxycyclohexyl)amino]methyl}-8-methylquinolin-7-yl)-4-[(2S)-tetrahydrofuran-2-ylmethoxy]benzamide] the IC50 [3] was 9.1 nM, the IC50 [4] was 8.3 nM and the melting point was 183 to 184 °C.
Molecule `Cc1c(NC(=O)c2ccc(OC[C@@H]3CCCO3)cc2)ccc2cc(CN[C@@H]3CCCC[C@H]3O)cnc12` [Example 46, N-[3-({[(1R,2R)-2-hydroxycyclohexyl]amino}methyl)-8-methylquinolin-7-yl]-4-[(2S)-tetrahydrofuran-2-ylmethoxy]benzamide] has an IC50 [3] of 4.5 nM, an IC50 [4] of 6.5 nM and a melting point of 142 to 143 °C.
With `Cc1c(NC(=O)c2ccc(OC[C@@H]3CCCO3)cc2)ccc2cc(CNC[C@@H]3CCCO3)cnc12` [Example 29, N-[8-methyl-3-({[(2S)-tetrahydrofuran-2-ylmethyl]amino}methyl)quinolin-7-yl]-4-[(2S)-tetrahydrofuran-2-ylmethoxy]benzamide] the IC50 [3] was 3.2 nM, the IC50 [4] was 4.6 nM and the melting point was 93 to 94 °C.
With `Cc1c(NC(=O)c2ccc(OC[C@@H]3CCCO3)cc2)ccc2cc(CN3CCC(C)(O)CC3)cnc12` [Example 72, N-{3-[(4-hydroxy-4-methylpiperidin-1-yl)methyl]-8-methylquinolin-7-yl}-4-[(2S)-tetrahydrofuran-2-ylmethoxy]benzamide] the IC50 [3] was 4.5 nM, the IC50 [4] was 4.3 nM and the melting point was 169 to 174 °C.
Molecule `Cc1c(NC(=O)c2ccc(OC[C@@H]3CCCO3)cc2)ccc2cc(CN[C@H]3CCCC[C@@H]3O)cnc12` [Example 47, N-[3-({[(1S,2S)-2-hydroxycyclohexyl]amino}methyl)-8-methylquinolin-7-yl]-4-[(2S)-tetrahydrofuran-2-ylmethoxy]benzamide] has an IC50 [3] of 6.8 nM, an IC50 [4] of 7.9 nM and a melting point of 157 to 158 °C.
